Assay results published in ChEMBL document CHEMBL2406973, “Synthesis of novel diarylamino-1,3,5-triazine derivatives as FAK inhibitors with anti-angiogenic activity” (Bioorg Med Chem Lett, 2013).

Experiments:
[1] = target: Focal adhesion kinase 1 (Homo sapiens, UniProt Q05397); assay: Inhibition of pre-activated recombinant full length FAK (unknown origin) using ULight labeled poly(Glu/Tyr) as substrate after 1.6 hrs by TR-FRET assay
[2] = test system: HUVEC; assay: Antiangiogenic activity in HUVEC assessed as inhibition of VEGF-stimulated proliferation after 72 hrs by WST-1 assay; format: functional, cell-based; conditions: Homo sapiens

Focal adhesion kinase 1, sequence (Q05397 whole entry): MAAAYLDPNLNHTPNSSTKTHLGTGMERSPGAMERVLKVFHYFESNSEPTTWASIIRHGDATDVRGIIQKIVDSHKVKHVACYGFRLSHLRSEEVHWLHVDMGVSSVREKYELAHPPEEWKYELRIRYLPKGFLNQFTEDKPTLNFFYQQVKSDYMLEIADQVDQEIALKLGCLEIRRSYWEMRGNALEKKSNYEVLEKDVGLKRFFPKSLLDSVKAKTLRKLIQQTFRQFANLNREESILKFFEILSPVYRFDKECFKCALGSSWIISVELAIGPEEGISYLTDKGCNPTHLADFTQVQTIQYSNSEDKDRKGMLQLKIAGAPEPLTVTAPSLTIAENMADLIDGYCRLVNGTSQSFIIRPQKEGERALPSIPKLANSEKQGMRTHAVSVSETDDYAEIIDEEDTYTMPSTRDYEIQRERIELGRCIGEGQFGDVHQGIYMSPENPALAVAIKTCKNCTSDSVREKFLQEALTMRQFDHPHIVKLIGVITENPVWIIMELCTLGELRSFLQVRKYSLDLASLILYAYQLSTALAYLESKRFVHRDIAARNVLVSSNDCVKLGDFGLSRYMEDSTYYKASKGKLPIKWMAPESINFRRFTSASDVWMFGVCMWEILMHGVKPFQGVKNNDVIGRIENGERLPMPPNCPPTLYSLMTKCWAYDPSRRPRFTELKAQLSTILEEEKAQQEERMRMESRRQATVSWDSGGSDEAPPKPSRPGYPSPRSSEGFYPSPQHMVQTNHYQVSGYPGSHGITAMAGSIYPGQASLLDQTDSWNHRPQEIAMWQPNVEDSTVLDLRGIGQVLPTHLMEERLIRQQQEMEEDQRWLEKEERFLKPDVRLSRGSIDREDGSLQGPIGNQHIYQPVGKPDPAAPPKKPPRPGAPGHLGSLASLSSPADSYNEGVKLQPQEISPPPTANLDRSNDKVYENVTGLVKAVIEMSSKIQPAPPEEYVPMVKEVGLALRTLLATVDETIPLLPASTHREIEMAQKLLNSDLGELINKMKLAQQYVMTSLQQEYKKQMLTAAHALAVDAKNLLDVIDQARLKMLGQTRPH

| Structure (SMILES) | IC50 [1] [µM] | IC50 [2] [µM] |
| --- | --- | --- |
| COc1cc(Nc2nc(Nc3ccccc3NC(C)=O)nc(C(F)(F)F)n2)cc(OC)c1OC | 126 | 33.3 |
| CCC(CC)NC(=O)c1ccccc1Nc1ncnc(Nc2cc(OC)c(OC)c(OC)c2)n1 | 6 | 5.3 |
| COc1cc(Nc2nc(Cl)nc(Nc3ccccc3NS(C)(=O)=O)n2)cc(OC)c1OC | 41.9 | 9.5 |
| CNc1nc(Nc2cc(OC)c(OC)c(OC)c2)nc(Nc2ccccc2NS(C)(=O)=O)n1 | 65.9 | 34.2 |
| CNC(=O)c1ccccc1Nc1ncnc(Nc2ccc(OC)cc2OC)n1 | 1.5 | 6.5 |
| CS(=O)(=O)Nc1ccccc1Nc1ncnc(Nc2ccc(CN)cc2)n1 | 2.3 | 3.9 |
| COc1cc(Nc2ncnc(Nc3ccccc3C(=O)NCCO)n2)cc(OC)c1OC | 23.8 | 17.5 |
| CNC(=O)c1ccccc1Nc1ncnc(Nc2cc(OC)c(OC)c(OC)c2)n1 | 0.4 | 2.5 |
| COc1cc(Nc2ncnc(Nc3ccccc3C(=O)NC(C)C)n2)cc(OC)c1OC | 2.2 | 4 |
| CNC(=O)c1ccccc1Nc1ncnc(Nc2ccc(N3CCOCC3)cc2OC)n1 |  | 1.5 |
| COc1cc(Nc2ncnc(Nc3ccccc3C(=O)NC3CC3)n2)cc(OC)c1OC | 6.1 | 5.9 |
| COc1cc(Nc2ncnc(Nc3cccc(NS(C)(=O)=O)c3)n2)cc(OC)c1OC | 9.2 | 7.2 |
| COc1ccc(Nc2ncnc(Nc3ccccc3NC(C)=O)n2)c(OC)c1 | 21.1 | 11.2 |
| CNC(=O)c1ccccc1Nc1nc(Nc2ccc(N3CCOCC3)cc2OC)ncc1Cl |  | 1 |
| COC(=O)Nc1ccccc1Nc1nc(C)nc(Nc2cc(OC)c(OC)c(OC)c2)n1 | 35.9 | 15.8 |
| CNC(=O)c1ccccc1Nc1ncnc(Nc2ccc(CN)cc2)n1 | 0.16 | 2.1 |
| COc1cc(Nc2ncnc(Nc3ccccc3C(=O)NCCN(C)C)n2)cc(OC)c1OC | 10.2 | 9.4 |

Continued by falling IC50 [1], values first:

| IC50 [1] [µM] | Structure (SMILES) | IC50 [2] [µM] |
| --- | --- | --- |
| 57.8 | COc1cc(Nc2nc(Cl)nc(Nc3cccc(NS(C)(=O)=O)c3)n2)cc(OC)c1OC | 13.3 |
| 54.3 | COc1cc(Nc2nc(C)nc(Nc3ccccc3NC(=O)N(C)C)n2)cc(OC)c1OC | 27.3 |
| 50.8 | COc1cc(Nc2nc(C)nc(Nc3ccccc3NC(C)=O)n2)cc(OC)c1OC | 18.8 |
| 41.3 | CNc1nc(Nc2cccc(NS(C)(=O)=O)c2)nc(Nc2cc(OC)c(OC)c(OC)c2)n1 | 10 |
| 17.9 | COC(=O)c1ccccc1Nc1ncnc(Nc2cc(OC)c(OC)c(OC)c2)n1 | 23.2 |
| 7.9 | COc1cc(Nc2nc(C)nc(Nc3ccccc3NS(C)(=O)=O)n2)cc(OC)c1OC | 8.5 |
| 6.1 | COc1ccc(Nc2ncnc(Nc3ccccc3NS(C)(=O)=O)n2)c(OC)c1 | 2.7 |
| 5.2 | COc1cc(Nc2ncnc(Nc3ccccc3C(=O)NC3CCCC3)n2)cc(OC)c1OC | 3.9 |
| 5.1 | COc1cc(Nc2ncnc(Nc3ccccc3NS(C)(=O)=O)n2)cc(OC)c1OC | 6.1 |
| 1.9 | CCC(CC)NC(=O)c1ccccc1Nc1ncnc(Nc2ccc(CN)cc2)n1 | 1.4 |
| 1 | CC(C)NC(=O)c1ccccc1Nc1ncnc(Nc2ccc(CN)cc2)n1 | 3.2 |
| 0.44 | CCNC(=O)c1ccccc1Nc1ncnc(Nc2ccc(CN)cc2)n1 | 2.8 |
| 0.3 | CNC(=O)c1ccccc1Nc1ncnc(Nc2cc(CCC(N)=O)c(OC)c(OC)c2)n1 | 1.3 |
